Data published in the supplement of paper PMC10307832.

Columns and labels:
Assay in all cases: relative viability (nuclei count vs DMSO), 5 days (fraction); higher = more cells survive
[1] = system: PC-14
Procedure, shortened: (§1)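 Relative viability equals treated-well nuclei counts divided by vehicle-well nuclei counts. Counts came from 4× images of lung cancer cell lines grown in 1536-well plates for 5 days after pin-tool dosing on the day after seeding. Dosing used one drug alone or a fixed anchor-drug dose plus five library-drug doses (not always all listed) in √10 steps, and values are medians of duplicate plates.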

[2] = system: SK-LU-1
Procedure, shortened: as §1

[3] = system: EKVX
Procedure, shortened: as §1

[4] = system: NCI-H1792
Procedure, shortened: as §1

[5] = system: NCI-H520
Procedure, shortened: as §1

[6] = system: A-427
Procedure, shortened: as §1

[7] = system: HCC-827
Procedure, shortened: as §1

[8] = system: NCI-H2087
Procedure, shortened: as §1

[9] = system: NCI-H3122
Procedure, shortened: as §1

[10] = system: NCI-H1437
Procedure, shortened: as §1

[11] = system: ABC-1
Procedure, shortened: as §1

[12] = system: LCLC-103H
Procedure, shortened: as §1

[13] = system: COR-L23
Procedure, shortened: as §1

[14] = system: 201T
Procedure, shortened: as §1

[15] = system: SW 1573
Procedure, shortened: as §1

[16] = system: NCI-H1666
Procedure, shortened: as §1

[17] = system: EPLC-272H
Procedure, shortened: as §1

[18] = system: HCC-44
Procedure, shortened: as §1

[19] = system: NCI-H2023
Procedure, shortened: as §1

[20] = system: RERF-LC-KJ
Procedure, shortened: as §1

[21] = system: SW 900
Procedure, shortened: as §1

[22] = system: NCI-H2009
Procedure, shortened: as §1

[23] = system: COR-L 105
Procedure, shortened: as §1

[24] = system: EMC-BAC-2
Procedure, shortened: as §1

[25] = system: LU99A
Procedure, shortened: as §1

Structure (SMILES): Nc1cccc2c1CN(C1CCC(=O)NC1=O)C2=O (stereo not given) [Lenalidomide] + O=C(c1cc(Cc2n[nH]c(=O)c3ccccc23)ccc1F)N1CCN(C(=O)C2CC2)CC1 [Olaparib] (partner 8 µM)
- relative viability ([1]; first compound 0.253 µM): 0.302
- relative viability ([1]; first compound 0.8 µM): 0.243
- relative viability ([1]; first compound 2.53 µM): 0.374
- relative viability ([1]; first compound 8 µM): 0.436
- relative viability ([2]; first compound 0.253 µM): 0.409
- relative viability ([2]; first compound 0.8 µM): 0.542
- relative viability ([2]; first compound 2.53 µM): 0.615
- relative viability ([2]; first compound 8 µM): 0.392
- relative viability ([3]; first compound 0.253 µM): 0.776
- relative viability ([3]; first compound 0.8 µM): 0.754
- relative viability ([3]; first compound 2.53 µM): 0.87
- relative viability ([3]; first compound 8 µM): 0.786
- relative viability ([4]; first compound 0.253 µM): 0.609
- relative viability ([4]; first compound 0.8 µM): 0.378
- relative viability ([4]; first compound 2.53 µM): 0.588
- relative viability ([4]; first compound 8 µM): 0.485
- relative viability ([5]; first compound 0.253 µM): 0.368
- relative viability ([5]; first compound 0.8 µM): 0.359
- relative viability ([5]; first compound 2.53 µM): 0.375
- relative viability ([5]; first compound 8 µM): 0.35
- relative viability ([6]; first compound 0.253 µM): 0.713
- relative viability ([6]; first compound 0.8 µM): 0.504
- relative viability ([6]; first compound 2.53 µM): 0.838
- relative viability ([6]; first compound 8 µM): 0.79
- relative viability ([7]; first compound 0.253 µM): 0.633
- relative viability ([7]; first compound 0.8 µM): 0.57
- relative viability ([7]; first compound 2.53 µM): 0.668
- relative viability ([7]; first compound 8 µM): 0.612
- relative viability ([8]; first compound 0.253 µM): 0.562
- relative viability ([8]; first compound 2.53 µM): 0.689
- relative viability ([8]; first compound 8 µM): 0.685
- relative viability ([9]; first compound 0.253 µM): 0.596
- relative viability ([9]; first compound 0.8 µM): 0.579
- relative viability ([9]; first compound 2.53 µM): 0.623
- relative viability ([9]; first compound 8 µM): 0.745
- relative viability ([10]; first compound 0.253 µM): 0.612
- relative viability ([10]; first compound 0.8 µM): 0.629
- relative viability ([10]; first compound 2.53 µM): 0.638
- relative viability ([10]; first compound 8 µM): 0.677
- relative viability ([11]; first compound 0.253 µM): 0.654
- relative viability ([11]; first compound 0.8 µM): 0.764
- relative viability ([11]; first compound 2.53 µM): 0.861
- relative viability ([11]; first compound 8 µM): 1.03
- relative viability ([12]; first compound 0.253 µM): 0.718
- relative viability ([12]; first compound 0.8 µM): 0.667
- relative viability ([12]; first compound 2.53 µM): 0.76
- relative viability ([12]; first compound 8 µM): 0.741
- relative viability ([13]; first compound 0.253 µM): 0.329
- relative viability ([13]; first compound 0.8 µM): 0.316
- relative viability ([13]; first compound 2.53 µM): 0.356
- relative viability ([13]; first compound 8 µM): 0.393
- relative viability ([14]; first compound 0.253 µM): 0.847
- relative viability ([14]; first compound 0.8 µM): 0.865
- relative viability ([14]; first compound 2.53 µM): 0.864
- relative viability ([14]; first compound 8 µM): 0.92
- relative viability ([15]; first compound 0.253 µM): 0.492
- relative viability ([15]; first compound 0.8 µM): 0.545
- relative viability ([15]; first compound 2.53 µM): 0.468
- relative viability ([15]; first compound 8 µM): 0.606
- relative viability ([16]; first compound 0.253 µM): 0.781
- relative viability ([16]; first compound 0.8 µM): 0.717
- relative viability ([16]; first compound 2.53 µM): 0.776
- relative viability ([16]; first compound 8 µM): 0.759
- relative viability ([17]; first compound 0.253 µM): 0.777
- relative viability ([17]; first compound 2.53 µM): 0.613
- relative viability ([17]; first compound 8 µM): 0.657
- relative viability ([18]; first compound 0.253 µM): 0.981
- relative viability ([18]; first compound 0.8 µM): 0.873
- relative viability ([18]; first compound 2.53 µM): 1.02
- relative viability ([18]; first compound 8 µM): 1.05
- relative viability ([19]; first compound 0.253 µM): 0.46
- relative viability ([19]; first compound 0.8 µM): 0.469
- relative viability ([19]; first compound 2.53 µM): 0.492
- relative viability ([19]; first compound 8 µM): 0.453
- relative viability ([20]; first compound 0.253 µM): 0.812
- relative viability ([20]; first compound 0.8 µM): 0.704
- relative viability ([20]; first compound 2.53 µM): 0.884
- relative viability ([20]; first compound 8 µM): 1.05
- relative viability ([21]; first compound 2.53 µM): 0.913
- relative viability ([21]; first compound 8 µM): 0.858
- relative viability ([22]; first compound 0.253 µM): 0.623
- relative viability ([22]; first compound 0.8 µM): 0.654
- relative viability ([22]; first compound 2.53 µM): 0.827
- relative viability ([22]; first compound 8 µM): 0.693
- relative viability ([23]; first compound 0.253 µM): 0.737
- relative viability ([23]; first compound 0.8 µM): 0.712
- relative viability ([23]; first compound 2.53 µM): 0.748
- relative viability ([23]; first compound 8 µM): 0.774
- relative viability ([24]; first compound 0.253 µM): 0.479
- relative viability ([24]; first compound 0.8 µM): 0.395
- relative viability ([24]; first compound 2.53 µM): 0.52
- relative viability ([24]; first compound 8 µM): 0.461
- relative viability ([25]; first compound 0.253 µM): 0.261
- relative viability ([25]; first compound 0.8 µM): 0.283
- relative viability ([25]; first compound 2.53 µM): 0.243
- relative viability ([25]; first compound 8 µM): 0.246

Structure (SMILES): Nc1cccc2c1CN(C1CCC(=O)NC1=O)C2=O (stereo not given) [Lenalidomide] + NC(=O)Nc1cc(-c2cccc(F)c2)sc1C(=O)N[C@H]1CCCNC1 [AZD7762] (partner 0.2 µM)
- relative viability ([1]; first compound 0.253 µM): 0.384
- relative viability ([1]; first compound 0.8 µM): 0.297
- relative viability ([1]; first compound 2.53 µM): 0.386
- relative viability ([1]; first compound 8 µM): 0.427
- relative viability ([3]; first compound 0.253 µM): 0.735
- relative viability ([3]; first compound 0.8 µM): 0.941
- relative viability ([3]; first compound 2.53 µM): 0.805
- relative viability ([3]; first compound 8 µM): 0.7
- relative viability ([4]; first compound 0.253 µM): 0.894
- relative viability ([4]; first compound 0.8 µM): 0.571
- relative viability ([4]; first compound 2.53 µM): 0.971
- relative viability ([4]; first compound 8 µM): 0.479
- relative viability ([6]; first compound 0.253 µM): 0.793
- relative viability ([6]; first compound 0.8 µM): 0.878
- relative viability ([6]; first compound 2.53 µM): 0.889
- relative viability ([6]; first compound 8 µM): 0.887
- relative viability ([7]; first compound 0.253 µM): 0.264
- relative viability ([7]; first compound 0.8 µM): 0.325
- relative viability ([7]; first compound 2.53 µM): 0.255
- relative viability ([7]; first compound 8 µM): 0.206
- relative viability ([8]; first compound 0.253 µM): 1.29
- relative viability ([8]; first compound 2.53 µM): 1.29
- relative viability ([8]; first compound 8 µM): 1.23
- relative viability ([9]; first compound 0.253 µM): 0.938
- relative viability ([9]; first compound 0.8 µM): 1.03
- relative viability ([9]; first compound 2.53 µM): 1.06
- relative viability ([9]; first compound 8 µM): 0.966
- relative viability ([10]; first compound 0.253 µM): 1.16
- relative viability ([10]; first compound 0.8 µM): 1.23
- relative viability ([10]; first compound 2.53 µM): 1.17
- relative viability ([10]; first compound 8 µM): 1.19
- relative viability ([11]; first compound 0.253 µM): 0.791
- relative viability ([11]; first compound 0.8 µM): 0.59
- relative viability ([11]; first compound 2.53 µM): 0.929
- relative viability ([11]; first compound 8 µM): 0.856
- relative viability ([12]; first compound 0.253 µM): 0.755
- relative viability ([12]; first compound 0.8 µM): 0.796
- relative viability ([12]; first compound 2.53 µM): 0.786
- relative viability ([12]; first compound 8 µM): 0.589
- relative viability ([14]; first compound 0.253 µM): 0.594
- relative viability ([14]; first compound 0.8 µM): 0.848
- relative viability ([14]; first compound 2.53 µM): 0.617
- relative viability ([14]; first compound 8 µM): 0.529
- relative viability ([16]; first compound 0.253 µM): 0.895
- relative viability ([16]; first compound 0.8 µM): 0.716
- relative viability ([16]; first compound 2.53 µM): 0.985
- relative viability ([16]; first compound 8 µM): 0.874
- relative viability ([17]; first compound 0.253 µM): 0.23
- relative viability ([17]; first compound 0.8 µM): 0.202
- relative viability ([17]; first compound 2.53 µM): 0.213
- relative viability ([17]; first compound 8 µM): 0.201
- relative viability ([18]; first compound 0.253 µM): 0.97
- relative viability ([18]; first compound 0.8 µM): 0.836
- relative viability ([18]; first compound 2.53 µM): 0.999
- relative viability ([18]; first compound 8 µM): 1.14
- relative viability ([20]; first compound 0.253 µM): 1.01
- relative viability ([20]; first compound 0.8 µM): 0.319
- relative viability ([20]; first compound 2.53 µM): 1.18
- relative viability ([20]; first compound 8 µM): 0.82
- relative viability ([21]; first compound 2.53 µM): 0.578
- relative viability ([21]; first compound 8 µM): 0.456
- relative viability ([24]; first compound 0.253 µM): 1.12
- relative viability ([24]; first compound 0.8 µM): 0.64
- relative viability ([24]; first compound 2.53 µM): 1.19
- relative viability ([24]; first compound 8 µM): 0.931
- relative viability ([25]; first compound 0.253 µM): 0.311
- relative viability ([25]; first compound 0.8 µM): 0.341
- relative viability ([25]; first compound 2.53 µM): 0.397
- relative viability ([25]; first compound 8 µM): 0.257
